Strand notation (5' to 3'): a small letter for the sugar, then the base; units joined by * are phosphorothioate-linked, units joined directly phosphodiester-linked; [ ] holds rarer units or linkages, { } end groups; capitals alone tell only the bases. r = 2'-OH (RNA); f = 2'-fluoro
Columns and labels:
[1] = tested on: thrombin generation in normal human platelet poor plasma; experiment: Calibrated automated thrombography (CAT); format: biochemical
Method: Normal human platelet poor plasma (80 μL) was mixed with aptamer(s) (10 μL) in an Immunolon 2HB U Bottom Mictrotiter 96-well plate (Thermo Labsystems, Franklin, Mass.) and incubated at 37° C. for 5 min. PPP reagent (Diagnostica Stago, Parsippany, N.J.) (either 1 ρM or 5 ρM TF, 20 μL, Diagnostica Stago) was added, and the mixture was incubated at 37° C. for another 5 min. FluCa (Diagnostica Stago) (10 μL) was added to initiate the assay and thrombin generation was measured for 60 minutes at 37° C. with a Fluoroskan Ascent fluorometer (ThermoLabsystem, Helsinki, Finland) according to the manufacturer's instructions. The amount of thrombin generated was quantified by comparison to an assay with thrombin calibrator reagent (Diagnostica Stago) that has a known activity toward the fluorogenic substrate. The lag time, peak amount of thrombin generated, and endogenous thrombin potential (ETP) were automatically calculated by the Thrombinoscope software (Thrombinoscope BV, the Netherlands).
Thrombin is the final protease formed in the coagulation cascade, and the rate of thrombin generation and the total amount of thrombin generated is associated with blood clot formation and stability (Wolberg, Blood Rev 21:131-42 (2007)). To gain more information about the impact of aptamer anticoagulation on the kinetics of thrombin generation, the individual aptamers were analyzed with calibrated automated thrombography (CAT). The CAT assay measures real-time thrombin generation in plasma by monitoring cleavage of a thrombin-specific fluorogenic substrate in response to TF stimulation (Heruker et al, Pathophysiol Haemost Thromb 33: 4-15 (2003)). The parameters of thrombin generation analyzed include: the lag time (time until thrombin generation begins), the peak (the maximal amount of thrombin generated at a given time) and the endogenous thrombin potential (ETP, the total amount of thrombin generated). Similar to the aPTT and PT clotting assays, all of the individual aptamers dose-dependently impacted the various parameters of thrombin generation (FIG. 21 and Table 1). […] 9.3T minorly impacted all parameters of thrombin generation with the high TF reagent; however, because high concentrations of TF may bypass FIX activity by directly generating FXa, the manufacturer recommends low concentrations of TF for analyzing FIX deficient (i.e, Hemophilia B) plasma in the CAT.

[2] = tested on: clot formation in whole blood; experiment: Thromboelastography (TEG), whole blood stimulated with kaolin; format: cell-based, human
Method: (§1) Blood was drawn from healthy, consented volunteers under a Duke University Institutional Review Board approved protocol and anticoagulated with 3.2% sodium citrate. Whole blood (320 μL) was mixed with anticoagulant (heparin or aptamers) (10 μL) and kaolin (Haemonetics, Niles, Ill.) (10 μL) or CAT PRP reagent (Diagnostica Stago, 0.33 ρM TF final) (10 μL) was added to stimulate clotting. CaCl2 (20 μL) was immediately added to overcome the citrate, the mixture was added to a plain disposable plastic TEG cup (Haemonetics), and the assay was run according to the manufacturer's instructions. Clot formation at 37° C. was measured with a Thromboelastograph Analyzer (Haemonetics, Niles, Ill.) until a stable clot was formed (i.e., a maximum amplitude was reached) or for three hours with the aptamer combinations. The time lag time, α-angle, and maximum amplitude were automatically calculated by the TEG® Analytical Software version 4.2.3 (Haemonetics).
Although the aPTT, PT, and CAT assays provide basic information about dose-dependent anticoagulation, these assays are performed in an environment that lacks platelets. Platelets play a crucial role in clot formation by providing a membrane surface upon which the clotting factors assemble, by aggregating and becoming physically incorporated into the blood clot, and by releasing internal stores of agonists that amplify coagulation (Monroe et al, Arterioscler Thromb Vasc Biol 22:138 1-9 (2002)). Therefore, a study was made of aptamer anticoagulation with thromboelastography (TEG), which provides real-time information about the kinetics of clot formation in whole blood (Reikvam et al, Transfus Apher Sci; 40:119-23 (2009). The TEG assay uses mechanical motion to quantify the physical properties of clot formation, including the lag time (the time until clot formation), the α-angle (the rate of clot formation), and the maximum amplitude (the mechanical strength of the clot formed).

[3] = tested on: clot formation in whole blood; experiment: Thromboelastography (TEG), whole blood stimulated with tissue factor; format: cell-based, human
Method: as §1
Because kaolin stimulates blood via the intrinsic pathway, it is unlikely that 7S-1 (FVIIa aptamer) would impair clot formation with this type of stimulation; thus, this aptamer was tested in a modified TEG with TF stimulation. CAT platelet rich plasma (PRP) reagent (TF) was diluted to a final concentration of 0.33 ρM TF to stimulate clotting.

[4] = tested on: clot formation in normal human platelet poor plasma; experiment: Activated partial thromboplastin time (aPTT) plasma clotting assay; format: biochemical; details: aPTT
Method: The activated partial thromboplastin time (aPTT) and prothrombin time (PT) assays were performed on a model ST4 mechanical coagulometer (Diagnostica Stago, Parsippany, N.J.) as previously described (Bompiani et al, J Thromb Haemost 10:870-80 (2012)). For the aPTT, 50 μL of normal human platelet poor plasma (PPP) was incubated with 50 μL TriniClot aPTT S (Trinity BioTech, Bray, Co Wicklow, Ireland) at 37° C. for 5 min. Aptamer(s) (5 μL) was added, and the mixture was incubated at 37° C. for another 5 min, and CaCl2 (50 μL) was added to initiate the assay. For the PT, 50 μL of normal human PPP was incubated with 5 μL of aptamer(s) at 37° C. for 5 min. TriniClot PT Excel reagent (Trinity BioTech, Bray, Co Wicklow, Ireland) (100 μL) was added to initiate the reaction. Assays with a combination of two aptamers contain an equimolar concentration of each individual aptamer, and the data shown are the total RNA concentration.
To compare the anticoagulant effect of these four aptamers, dose-response titrations were performed in several clinical plasma-based clotting assays. The activated partial thromboplastin time (aPTT) and prothrombin time (PT) are plasma clotting assays that are clinically used to probe for abnormalities in the intrinsic and extrinsic coagulation pathways, respectively (Van Cott et al, editors. Jacobs & DeMott laboratory test handbook. 5th ed. Hudson Ohio: Lexi-Comp. p. 327-58 (2001)). These relatively simple assays measure the time until clot formation in platelet poor plasma (PPP) in response to either robust tissue factor (TF), or contact stimulation via negatively charged surfaces (i.e., silica, kaolin, celite). […] At high concentrations, the prothrombin aptamer (R9D-14T) was the most robust anticoagulant and inhibited greater than 96% of prothrombin activity in the aPTT and PT. At 4 μM, R9D-14T increased the aPTT clotting time approximately 18-fold and the PT clotting time greater than 80-fold (exceeded the assay limit of 999 sec). […] At the same dose, the FIXa aptamer (9.3T) inhibited greater than 99% of FIX activity and increased the aPTT clotting time approximately 5.5-fold, while the FVIIa aptamer (7S-1) increased the PT clotting time 3-fold and inhibited greater than 99% of FVII activity (FIGS. 20A and 20B).

## R9D-14Tmut: R9D-14T mutant control, SEQ ID NO: 7 (GGCGGTCGATCACACAGTTCAAACGTAATAAGCCGGCGTACGAGGCAGACGACTCGCC; 2'-fluoro at CT, RNA at AG, all phosphodiester, T or U not given here) [Aptamer R9D-14Tmut, reference compound]
[1]; RNA 5,000 nM, TF 5 ρM
  ETP: 1564.33 ± 121.22 nM·min
  Lag-time: 1.44 ± 0.06 min
  Peak: 312.12 ± 8.89 nM
  TTP: 3.66 ± 0.17 min
[2]; RNA 5.0 μM
  Angle: 56.0 ± 4.8 deg
  Lag-time: 6.5 ± 0.4 min
  Max. Amplitude: 61.9 ± 4.0 mm
[3]; RNA 5.00 μM
  Angle: 72.3 ± 0.7 deg
  Lag-time: 2.7 ± 0.2 min
  Max. Amplitude: 66.1 ± 1.4 mm

## 11F7Tmut: 11F7T mutant control, SEQ ID NO: 6 (rGrArGrArGfCfCfCfCrArGfCrGrArGrAfUrArAfUrAfCfUfUrGfUrAfCfCfCrGfCfUfCfUfU) [Aptamer 11F7Tmut, reference compound]
[1]; RNA 1,000 nM, TF 5 ρM
  ETP: 1902.67 ± 87.44 nM·min
  Lag-time: 1.39 ± 0.06 min
  Peak: 391.12 ± 13.27 nM
  TTP: 3.73 ± 0.06 min
[2]; RNA 2.0 μM
  Angle: 69.7 ± 1.2 deg
  Lag-time: 5.1 ± 0.6 min
  Max. Amplitude: 65.8 ± 0.8 mm
[3]; RNA 2.00 μM
  Angle: 68.5 ± 0.5 deg
  Lag-time: 3.9 ± 0.2 min
  Max. Amplitude: 67.9 ± 0.7 mm

## 9.3Tmut: 9.3T mutant control, SEQ ID NO: 4 (AUGGGGACUGUGCCGCGUAAUGCUGCCUCCCCAU; 2'-fluoro at CU, RNA at AG, backbone not given here) [Aptamer 9.3Tmut, reference compound]
[1]; RNA 120 nM, TF 1 ρM
  ETP: 1446.83 ± 59.97 nM·min
  Lag-time: 3.11 ± 0.20 min
  Peak: 219.57 ± 33.93 nM
  TTP: 7.17 ± 0.59 min
[1]; RNA 120 nM, TF 5 ρM
  ETP: 1820.83 ± 80.77 nM·min
  Lag-time: 1.89 ± 0.06 min
  Peak: 355.41 ± 17.21 nM
  TTP: 4.34 ± 0.10 min
[2]; RNA 2.0 μM
  Angle: 58.6 ± 7.8 deg
  Lag-time: 7.3 ± 2.1 min
  Max. Amplitude: 60.1 ± 5.8 mm
[3]; RNA 1.00 μM
  Angle: 69.0 ± 4.8 deg
  Lag-time: 2.7 ± 0.4 min
  Max. Amplitude: 67.2 ± 1.6 mm

B1: FIX/FX dogbone 1: bifunctional FIX/FX dogbone aptamer, SEQ ID NO: 15 (nucleic acid)
chain: GGUGGAUGGGGACUAUACCGCGUAAUGCUGCCUCCCCAUCCACCAAAUAGCACGUAGAGAGCCCCAGCGAGAUAAUACUUGGCCCCGCUCUUUACGUGCUA
modifications: listed as RNA, chemistry not given here
[4]
  anti-coagulation of dogbones compared to the free combination of aptamers (in words): equal anti-coagulation compared to the free combination

B2: FIX/FX dogbone 2: bifunctional FIX/FX dogbone aptamer, SEQ ID NO: 16 (nucleic acid)
chain: GGAUGGGGACUAUACCGCGUAAUGCUGCCUCCCCAUCCAAAACGUAGAGAGCCCCAGCGAGAUAAUACUUGGCCCCGCUCUUUACGU
modifications: listed as RNA, chemistry not given here
[4]
  anti-coagulation of dogbones compared to the free combination of aptamers (in words): equal anti-coagulation compared to the free combination

B3: FX/FII dogbone 1: bifunctional FX/FII dogbone aptamer, SEQ ID NO: 19 (nucleic acid)
chain: GGGGCGGUCGAUCACACAGUUCAAACGUAAUAAGCCAAUGUACGAGGCAGACGACUCGCCCCAAAACGUAGAGAGCCCCAGCGAGAUAAUACUUGGCCCCGCUCUUUACGU
modifications: listed as RNA, chemistry not given here
[4]
  anti-coagulation of dogbones compared to the free combination of aptamers (in words): better anti-coagulation when compared to the free aptamers

B4: FX/FII dogbone 3: bifunctional FX/FII dogbone aptamer, SEQ ID NO: 21 (nucleic acid)
chain: GGGUCGAUCACACAGUUCAAACGUAAUAAGCCAAUGUACGAGGCAGACGACUCCAAAAGCCCCAGCGAGAUAAUACUUGGCCCCGCU
modifications: listed as RNA, chemistry not given here
[4]
  anti-coagulation of dogbones compared to the free combination of aptamers (in words): better anti-coagulation when compared to the free aptamers

B5: 3G dogbone 4: truncate of FX/FII dogbone 4, SEQ ID NO: 23 (nucleic acid)
chain: GGGUCGAUCACACAGUUCAAACGUAAUAAGCCAAUGUACGAGGCAGACGACCCAAAGCCCCAGCGAGAUAAUACUUGGCCCCGCU
modifications: listed as RNA, chemistry not given here
[4]
  anti-coagulation activity of dogbone 4 truncates (in words): best anti-coagulation activity of the truncates

B6: 4G dogbone 4: truncate of FX/FII dogbone 4, SEQ ID NO: 24 (nucleic acid)
chain: GGGGAUCACACAGUUCAAACGUAAUAAGCCAAUGUACGAGGCAGACCCCAAAGCCCCAGCGAGAUAAUACUUGGCCCCGCU
modifications: listed as RNA, chemistry not given here
[4]
  anti-coagulation activity of dogbone 4 truncates (in words): best anti-coagulation activity of the truncates

B7: 7S-1mut: 7S-1 mutant control, SEQ ID NO: 8 (nucleic acid)
chain: rGrGrGrArGrGrAfCrGrAfUrGfCrGrGrAfCfUfCfCfUfCfCrArArGfCrGrAfCfCrArAfCrAfUfCrGrGfUfCfUfUrAfUfUfUfCrArGrAfUfCrArAfCrArGrAfCrGrAfCfUfCrGfCfUrGrArGrGrAfUfCfCrGrArGrA
[1]; RNA 30 nM, TF 5 ρM
  ETP: 1890.67 ± 23.55 nM·min
  Lag-time: 1.73 ± 0.06 min
  Peak: 357.63 ± 7.76 nM
  TTP: 4.45 ± 0.06 min
[3]; RNA 0.50 μM
  Angle: 67.8 ± 3.8 deg
  Lag-time: 3.1 ± 0.1 min
  Max. Amplitude: 67.2 ± 0.7 mm

Reference: patent US9687529B2, “Method of controlling coagulation” (Duke University, priority 2011, dated 2017)
